Assay results as given in PubChem BioAssay AID179 (DTP/NCI, 2004).
Several values for one entry are separate records, joined by “and”; a condition that tells them apart may be missing. Equal values may be shown once. Activity calls are given as the source filed them.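 How the source made its calls: active means compounds giving half or more protection of infected cells from virus-caused growth loss, again on retest; inactive means the rest.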

System: CEM cells HIV-1 protection, formazan growth assay
Assay: NCI AIDS Antiviral Assay
Settings: for IC50: measured here: growth of uninfected CEM cells
Summary of the method: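 CEM (human) cells, HIV-1 infected vs uninfected, 5-point dosing, formazan growth read-out. Retest threshold 50% protection.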

Row | SMILES | outcome | EC50 | IC50
1 | O=C(O)CCC12CC[C@]3(O)OC(=O)[C@H](C[C@@H]1C(=O)O)C23 (stereo partly specified) | inactive |  | 
2 | CCCCCCCCCC(=O)OCC1OC(n2cc(F)c(=O)[nH]c2=O)C(NC(=O)OCc2ccccc2)C(OC(=O)CCCCCCCCC)C1O (stereo unspecified) |  | > 9.77 µM | > 9.77 µM
3 | COc1ccc(N2C(=O)C3c4[nH]c5ccccc5c4C4CCC(C(C)C)CC4C3C2=O)cc1 (stereo unspecified) |  | > 100 µM | 93.3 µM
4 | C=C(COC(=O)CC1(CC(=O)O)CCCC1)[C@@H]1CC[C@]2(COC(=O)CC3(CC(=O)O)CCCC3)CC[C@]3(C)[C@H](CC[C@@H]4[C@@]5(C)CC[C@H](OC(=O)CC6(CC(=O)O)CCCC6)C(C)(C)[C@@H]5CC[C@]43C)[C@@H]12 |  | > 200 µM | 8.71 µM
5 | COc1cc(/C=C2\CN(C)CC3=C2NC(=S)NC3c2cc(OC)c(OC)c(OC)c2)cc(OC)c1OC (stereo unspecified) |  | > 200 µM | 38.9 µM
6 | Sc1ccccc1-n1c(-c2ccccc2)ccc1-c1ccccc1 |  | > 200 µM | 151 µM and 155 µM
7 | C=CC1(C)C=C2C(O)CC3C(C)(C(=O)OC)CCCC3(C)C2CC1 (stereo unspecified) |  | > 21.9 µM | 11 µM
8 | CC1=C(C#N)C(=O)N(/N=C/c2ccc(Cl)cc2)C(=O)/C1=c1\o/c(=C2/C(=O)N(/N=C/c3ccc(Cl)cc3)C(=O)C(C#N)=C2C)c2nccnc12 |  | > 200 µM | 110 µM
9 | CC(CNc1ccc(Cl)cc1)(CNc1ccc(Cl)cc1)[N+](=O)[O-] |  | > 14.8 µM | > 14.8 µM
10 | CCCCCC12OCC(C)(C)N1O2 (stereo unspecified) |  | > 200 µM | 126 µM
11 | O=C1c2cc3c(cc2CC12Cc1cc4c(cc1C2=O)CCCC4)CCCC3 |  | > 200 µM | > 200 µM
12 | CN(C)S(=O)(=O)c1cc(Cl)cc(Cc2cc(Cl)cc(S(=O)(=O)N(C)C)c2O)c1O |  | > 74.1 µM | 4.37 µM
13 | CC[C@@H]1CC2CN3CCc4c([nH]c5cc(OC)c(OC)cc45)C(C(=O)OC)(C2)C13 (stereo partly specified) | inactive |  | 
14 | OCC(O)CC[CH2][Sn]([c]1ccccc1)([c]1ccccc1)[c]1ccccc1 (stereo unspecified) | inactive |  | 
15 | CC1C(N2CCCCC2)N(C(=O)c2ccccc2)SC12c1ccccc1-c1ccccc12 (stereo unspecified) |  | > 42.7 µM | > 42.7 µM
16 | O=c1c2cc([N+](=O)[O-])ccc2sc2ccsc12 |  | > 97.7 µM | > 97.7 µM
17 | COc1ccc(CN2COc3c(ccc4ccccc34)C2)cc1 |  | > 200 µM | 10.2 µM
18 | COc1cc2c(cc1OC)C13CC[N+]4(C)CC5CCOC6CCN2C1C6C5CC34 (stereo unspecified) |  | > 479 µM | 66.1 µM
19 | O=C1N[C@H]2[C@H](CS[C@H]2CCCCC(=O)N(CCP(c2ccccc2)c2ccccc2)CCP(c2ccccc2)c2ccccc2)N1 |  | > 14.8 µM | > 14.8 µM
20 | N#CC(C#N)=C1CCC2C(=C(C#N)C#N)CCC12 (stereo unspecified) | inactive |  | 

Row | SMILES | outcome | EC50 | IC50
21 | CSc1ccc(/C=C2\C=Cc3ccccc32)cc1 |  | > 28.8 µM | > 28.8 µM
22 | N#Cc1c(N=C/C=C/c2ccccc2)c(C(=O)Nc2ccccc2)n2c1CCC2 |  | > 200 µM | > 200 µM
23 | COc1ccc(C2(O)C(S(=O)(=O)c3ccc(C)cc3)=Cc3ccc(OC)cc32)cc1 (stereo unspecified) |  | > 200 µM | > 200 µM
24 | N#CCCC1C(C#N)C2CC1C1C3C=CC(C3)C21 (stereo unspecified) |  | > 200 µM | > 200 µM
25 | CC(C)C(CCOS(=O)(=O)O)CCC(C)[C@H]1[C@@H](O)C(O)C2[C@]3(O)C[C@@H](O)C4(O)C[C@@H](O)CC[C@]4(C)C3CC[C@@]21C (stereo partly specified) | inactive |  | 
26 | CC1=C2CC(C)(C)CC(=O)C2(C)CCC1=O (stereo unspecified) | inactive |  | 
27 | C=C1C(=O)O[C@@H]2CC(C)C3C(OC(C)=O)CC(OC(C)=O)[C@@]3(C)C[C@H]12 (stereo partly specified) |  | > 102 µM | 5.37 µM
28 | O=C1N[C@@H]2CCCC[C@@H]2C12CCCCC2 | inactive |  | 
29 | Nc1c(SSc2ccc3ccccc3c2N)ccc2ccccc12 |  | > 50.1 µM | 14.8 µM
30 | CC(C)(C)OC(=O)C1=C(O)C(C(=O)OC(C)(C)C)C23CCCCC12C(C(=O)OC(C)(C)C)C(O)=C3C(=O)OC(C)(C)C (stereo unspecified) | inactive |  | 
31 | CCCCCCC(=O)C/C(CCC(=O)N(Cc1ccccc1)Cc1ccccc1)=N\NC(N)=O |  | > 38 µM | > 38 µM
32 | O=C(NNC(=O)c1ccncc1)c1ccncc1 |  | > 200 µM | > 200 µM
33 | O=C1C(Cl)=C(Cl)C(=O)N1c1ccccc1Cl | inactive |  | 
34 | CN(C)c1ccc(/C=C2\Cc3ccccc3C2=O)cc1 |  | > 14.5 µM | > 14.5 µM
35 | Cc1cn(CC2=NCCCN2)c(=O)[nH]c1=O |  | > 200 µM | > 200 µM
36 | CCCCCCCCCCCCOP(=O)(O)OP(=O)(O)OCC1OC(n2cc(C)c(=O)[nH]c2=O)CC1O (stereo unspecified) |  | > 200 µM | 102 µM
37 | O=S1(=O)CC2C3CC(Oc4ccccc4)C(C3)C2C1 (stereo unspecified) |  | > 107 µM | > 107 µM
38 | C/C(O)=C(\C=NC(=S)c1cccnc1)C(=O)Nc1ccccc1C |  | > 200 µM | > 200 µM
39 | C[CH2][Sn]([CH2]C)([O]C(=O)c1ccc(F)cc1)[O][Sn]([CH2]C)([CH2]C)[O]C(=O)c1ccc(F)cc1 |  | > 8.13 µM | 6.61 µM
40 | O=C(/C=C/c1ccccc1F)c1ccccc1 |  | > 22.9 µM | > 22.9 µM

Row | SMILES | outcome | EC50 | IC50
41 | CCOC(=O)/C(=C/c1cccc2ccccc12)P(=O)(OCC)OCC |  | > 257 µM | 17 µM
42 | CCCCCC1=C(c2ccc(OC)c(S(=O)(=O)N(C)C)c2)c2cc(S(=O)(=O)N(C)C)c(OC)cc2S1(=O)=O |  | > 32.4 µM | > 32.4 µM
43 | Cc1csc2n(C)c(=O)c3ccccc3[n+]12 |  | 191 µM | > 200 µM
44 | Cc1ccc(S(=O)(=O)SCC(=O)c2ccc(Br)cc2)cc1 |  | 6.92 µM | 93.3 µM
45 | O=C1C(=C/C=C2/SC(c3ccccc3)(c3ccccc3)c3ccccc32)C(=O)c2ccccc21 |  | > 200 µM | > 200 µM
46 | CCOC(=O)c1cc(C(=O)OCC)c2ccccn2c1=O |  | > 100 µM | 43.7 µM
47 | Cc1c(/C=N/NC(=S)Nc2ccc([N+](=O)[O-])cc2)c(=O)n(-c2ccccc2)n1C |  | > 200 µM | 166 µM
48 | COc1ccc(OC)c(-c2cn3c(n2)sc2ccccc23)c1 |  | > 200 µM | 50.1 µM
49 | O=C1C(=O)N(c2cc(Cl)ccc2Cl)C(=O)C(=O)C1c1nc2ccccc2s1 | inactive |  | 
50 | O=C1C2=C(Nc3cc([N+](=O)[O-])ccc3N2)OC1c1ccccc1 (stereo unspecified) |  | > 17 µM | > 17 µM
51 | O=C(CSSCC(=O)OCCS(=O)(=O)Nc1ccc(Br)cc1)OCCS(=O)(=O)Nc1ccc(Br)cc1 | inactive |  | 
52 | CCCCCCC1=C(O)C(=O)C(CCCCCC)=C(O)C1=O |  | > 69.2 µM | 11.7 µM
53 | CC1=CC[C@@]2(C)CC[C@](O)(C(C)C)C2C(OC(=O)c2ccccc2)C1 (stereo partly specified) |  | > 200 µM | 13.2 µM
54 | O=C1NC(=O)C(=Cc2cccnc2)C(=O)N1 |  | > 200 µM | > 200 µM
55 | NC1=C(O)c2ccccc2C(=O)C1=O | inactive |  | 
56 | CCCCCCCCCCOc1cc2c(=O)c(C(=O)OCC)c[nH]c2cc1OCC |  | > 200 µM | > 200 µM
57 | CCN(CC)CCOc1ccc(C(C#N)=C(c2ccccc2)c2ccccc2)cc1 |  | > 200 µM | 2.57 µM
58 | COc1cc2ccc3c(c2oc1=O)[C@@H](OC(=O)C12CCC(C)(C(=O)O1)C2(C)C)[C@@H](OC(=O)C12CCC(C)(C(=O)O1)C2(C)C)C(C)(C)O3 (stereo partly specified) |  | 0.851 µM | 19.1 µM
59 | Nc1ccc(C2=N/C(=C\c3cccc(N)c3)C(=O)O2)cc1 | inactive |  | 
60 | OCC(CO)CC1COc2ccccc2O1 (stereo unspecified) | inactive |  | 
